Test results as given in patent US8367682B2, “Pyrimidine derivatives and their use as pesticides” (Novartis AG, priority 2006, dated 2013).

How the values were obtained:
Ctenocephalides felis = test: Activity in vitro against Ctenocephalides felis (cat flea), HTS, artificial blood feeding; conditions: in this test; adult fleas; concentration not given
Experimental: 3. Activity in Vitro Against Ctenocephalides felis (Cat Flea)—HTS
A mixed adult population of fleas is placed in a suitably formatted 96-well plate allowing fleas to access and feed on treated blood via an artificial feeding system. Each compound is tested by serial dilution in order to determine its MED. Fleas are fed on treated blood for 24 hours, after which the compound's effect is recorded. Insecticidal activity is determined on the basis of the number of dead fleas recovered from the feeding system.

Rhipicephalus sanguineus = test: Activity in vitro against Rhipicephalus sanguineus (dog ticks), HTS; conditions: in this test; adult ticks; concentration not given
Experimental: 2. Activity in Vitro Against Rhipicephalus sanguineus (Dog Ticks)—HTS
A clean adult tick population is used to seed a suitably formatted 96-well plate containing the test substances to be evaluated for antiparasitic activity. Each compound is tested by serial dilution in order to determine its MED. Ticks are left in contact with the test compound for 10 minutes and are then incubated at 28° C. and 80% relative humidity (RH) for 7 days, during which the test compound's effect is monitored. Acaricidal activity is confirmed if and when adult ticks are dead.

[1] = system: Rhipicephalus sanguineus nymphs; test: In-vivo test against Rhipicephalus sanguineus nymphs on Mongolian gerbils; conditions: for % reduction of number of ticks: spray (or spot-on) on gerbils, vs placebo group, Abbot's formula
Experimental: 4. In-Vivo Test Against Rhipicephalus sanquineus Nymphs on Mongolian Gerbils (Meriones unguiculatus)
On day 0, gerbils are treated with the test compound at a given dose by spray (or spot-on) application. On day +1 (+2), the animals are infested with nymphs of R. sanguineus. Ticks are left on the animals until full repletion. Seven days after infestation nymphs dropped off fully engorged are collected and counted. They are kept until molting to also evaluate growth regulating activity of the test compound. Efficacy in killing (and growth regulating) is expressed as a tick number (and molted tick number) reduction in comparison with a placebo treated group, using the Abbot's formula. A tick number reduction of more than 60%, in particular more than 70%, is regarded as a minimum prerequisite for a commercial development of a compound. In addition, said killing efficacy should be put into practice with the minimal dose for safety and environmental reasons.

| SMILES | % reduction of number of ticks ([1]; dose 3.2 mg/kg) [%] | % reduction of number of ticks ([1]; dose 10 mg/kg) [%] | other results |
| --- | --- | --- | --- |
| Nc1c(Oc2ccc(F)c(C(F)(F)F)c2)nc(-c2ccccc2)nc1Oc1ccc(F)c(C(F)(F)F)c1 [2-phenyl-4,6-bis-(4-fluoro-3-[trifluoromethyl]phenoxy)-5-amino-pyrimidine] | – | – | insecticidal efficacy (Ctenocephalides felis): does not show any significant insecticidal efficacy; acaricidal efficacy (Rhipicephalus sanguineus): does not show any significant acaricidal efficacy; killing efficacy ([1]; at these low concentrations (doses of the table, 3.2-10 mg/kg)): No significant killing efficacy |
| COc1cccc(-c2nc(Oc3ccc(F)c(C(F)(F)F)c3)c(N)c(Oc3ccc(F)c(C(F)(F)F)c3)n2)c1 [Compound 1.7] | 91 | – | – |
| Nc1c(Oc2ccc(F)c(C(F)(F)F)c2)nc(-c2cccc(N3CCOCC3)c2)nc1Oc1ccc(F)c(C(F)(F)F)c1 [Compound 1.30] | 79 | – | – |
| Cc1cccc(-c2nc(Oc3ccc(F)c(C(F)(F)F)c3)c(N)c(Oc3ccc(F)c(C(F)(F)F)c3)n2)c1 [Compound 1.9] | – | 74 | – |
| COCc1cccc(-c2nc(Oc3ccc(F)c(C(F)(F)F)c3)c(N)c(Oc3ccc(F)c(C(F)(F)F)c3)n2)c1 [Compound 1.27] | 78 | – | – |
| Cn1ccc2ccc(-c3nc(Oc4ccc(F)c(C(F)(F)F)c4)c(N)c(Oc4ccc(F)c(C(F)(F)F)c4)n3)cc21 [Compound 2.2] | 89 | – | – |
| CC(O)c1cccc(-c2nc(Oc3ccc(F)c(C(F)(F)F)c3)c(N)c(Oc3ccc(F)c(C(F)(F)F)c3)n2)c1 (stereo not shown) [Compound 1.18] | – | 85 | – |
| Nc1c(Oc2ccc(F)c(C(F)(F)F)c2)nc(-c2ccc3cc[nH]c3c2)nc1Oc1ccc(F)c(C(F)(F)F)c1 [Compound 2.3] | 81 | – | – |
| CN(C)c1cccc(-c2nc(Oc3ccc(F)c(C(F)(F)F)c3)c(N)c(Oc3ccc(F)c(C(F)(F)F)c3)n2)c1 [Compound 1.34, 2-(3-Dimethylamino-phenyl)-4,6-bis-(4-fluoro-3-trifluoromethyl-phenoxy)-pyrimidin-5-ylamine] | 85 | – | – |
| CC(C)c1cccc(-c2nc(Oc3ccc(F)c(C(F)(F)F)c3)c(N)c(Oc3ccc(F)c(C(F)(F)F)c3)n2)c1 [Compound 1.10] | – | 81 | – |
| Cc1cc(-c2nc(Oc3ccc(F)c(C(F)(F)F)c3)c(N)c(Oc3ccc(F)c(C(F)(F)F)c3)n2)ccc1F [Compound 1.23] | – | 99 | – |
